Test results reported in US10920278B1, “Method to treat hypotension using vasopressin in certain genotypes” (Par Pharmaceutical, Inc., priority 2020, dated 2021).
Read-outs that look alike come from different tables or passages of the source.

Key:
[1] = Phase 1 open-label parallel-group PK study of IV vasopressin in healthy volunteers by LNPEP rs4869317 genotype; type: in vivo, human; conditions: for Css (Max) / Css (Min) / level at 1 h / clearance: plasma; for level at 1 h / clearance: both sexes, human, iv; for level at 1 h: 200 uU/kg/min; for clearance: 200 μU/kg/min
Source text: The primary objective of this study was to evaluate differences in plasma clearance of vasopressin following IV administration in subjects with the TT genotype (rs4869317) versus those with the AA/AT genotype of the LNPEP gene in healthy volunteers. The secondary objective of the study was to assess the safety and tolerability of vasopressin in healthy volunteers. This was a Phase 1, open-label, 2-arm, parallel group, PK study in healthy volunteers. Approximately 48 healthy male and female subjects were enrolled at a single center in the United States to achieve at least 19 evaluable subjects per genotype group. The study comprised a screening period, a treatment period, and a follow-up phone call.
Subjects were screened for general good health over a 28-day period. Screening evaluations included medical history, physical examination, vital sign measurement, 12-lead electrocardiogram (ECG), and clinical laboratory testing (hematology, serum chemistry, and urinalysis). In addition, subjects were advised of the diet and medication restrictions and agreed to conform to them.
As a part of screening, the LNPEP genotype (TT or AA/AT) of the subjects was determined. The target enrollment was 24 subjects with the SNP rs4869317 (TT genotype). As the control group, 24 subjects with the AA/AT genotype were approximately matched with respect to age (±5 years), sex, race, BMI (±5%), and creatinine clearance (±10 mL/min). An effort was made to enroll at least 4 female subjects in each genotype group. Subjects were matched during screening and confirmed at check-in on Day-2. Subjects were enrolled for participation in 2 genotype groups of a minimum size of 24 subjects per genotype group in order to meet a minimum of 19 evaluable subjects per genotype group.
A dose of 200 μU/kg/min vasopressin (VASOSTRICT®) was used for this healthy volunteer PK study. The dose roughly corresponds to 0.012 units/minute for a 60 kg individual. This value is approximately equal to the starting dose of 0.01 units/minute in the VASOSTRICT® prescribing information. Clearance in healthy volunteers (15 mL/min/kg) at the vasopressin dose of 200 μU/kg/minute planned for study is within this range. Blood samples for PK analysis were drawn at baseline and 5, 15, 30, and 60 minutes following infusion. If TT genotyped subjects cleared vasopressin at a faster rate, patients of this genotype may benefit from an altered dosing regimen.
Subjects who meet all inclusion and none of the exclusion criteria received vasopressin continuous IV infusion at a constant rate of 200 μU/kg/min for 60 minutes on Day 1. To minimize orthostatic hypotension, subjects remained supine throughout the duration of the infusion. Eligible subjects were admitted to the clinical unit on Day-2, i.e., two days prior to dosing, to ensure adequate hydration and to standardize sodium intake. Vasopressin levels were also be determined during this period. Subjects remained confined until completion of all study procedures. While in the clinical unit, subjects were fed a standard diet with a dietary sodium intake limited to 2300 mg per day and drank no less than 1.0 to 1.5 L of water per day in addition to usual consumed beverages.
Study drug was administered on the morning of Day 1 under standard fasting conditions (minimum of 10-hour overnight fast). Passive telemetry monitoring occurred during the infusion. One hour prior to dosing, each subject was given an oral water load of 20 mL/kg to be consumed within 30 minutes. Thereafter, a second 20 mL/kg volume of water was made available. Subjects continued to drink water at regular intervals through the next 90 minutes (end of the infusion). Subjects were asked to pass urine spontaneously within 15 minutes prior to the start of infusion. The fasting restriction continued until the end of the infusion.
Subjects remained in the clinical unit after the end of the infusion and were discharged the following day (Day 2). […]

[2] = Table 1 overview of parameters, infusion rate 0.03 units/minute, TT vs AA/AT genotype patients; type: in vivo, human; conditions: for clearance / level at time molar: human, in vivo, 0.03 units/minute; for clearance: intravenous; for level at time molar: iv
[3] = cited from earlier work
[4] = septic shock patients, VASST trial, Nakada et al.; cited from earlier work
[5] = cited from earlier work; remark: listed apart in the source
[6] = AA/AT (n=12) vs TT (n=12), 60 minute continuous IV infusion 200 μU/kg/min
[7] = AA/AT genotype healthy volunteers (12 subjects), 200 μU/kg/min continuous IV infusion for 60 minutes
[8] = TT compared with AA/AT genotype
[9] = TT genotype healthy volunteers (12 subjects), 200 μU/kg/min continuous IV infusion for 60 minutes

For NC(=O)CC[C@@H]1NC(=O)[C@H](Cc2ccccc2)NC(=O)[C@H](Cc2ccc(O)cc2)NC(=O)[C@@H](N)CSSC[C@@H](C(=O)N2CCC[C@H]2C(=O)N[C@@H](CCCN=C(N)N)C(=O)NCC(N)=O)NC(=O)[C@H](CC(N)=O)NC1=O [vasopressin, Cyclo (1-6) L-Cysteinyl-L-Tyrosyl-L-Phenylalanyl-L-Glutaminyl-L-Asparaginyl-L-Cysteinyl-L-Prolyl-L-Arginyl-L-Glycinamide], the “higher plasma clearance in AA/AT than TT rs4869317 genotype” value [1, 6] was 25.5%, the “lower steady state concentration in AA/AT than TT rs4869317 genotype” value [1, 6] was 21.42% and the “Css (Max)” value [1, 7] was 0.0414 ng/mL. The “Css (Min)” value [1, 7] was 0.0101 ng/mL, the “vasopressin clearance, TT vs AA/AT genotyped patients (in words)” value [1, 8] was “lower vasopressin clearance” and the “vasopressin plasma concentrations, TT vs AA/AT genotyped patients (in words)” value [1, 8] was “higher vasopressin plasma concentrations”. The “Css (Max)” value [1, 9] was 0.0861 ng/mL, the “Css (Min)” value [1, 9] was 0.0171 ng/mL and the “mean clearance in TT patients less than that of AA/AT patients” value ([1]; TT vs AA/AT genotype) was “about 20%”. The “mean steady state plasma concentration in TT patients higher than that of AA/AT patients” value ([1]; TT vs AA/AT genotype) was “about 27.4%”, the level at 1 h ([1]; AA/AT genotype healthy volunteers (12 subjects), 200 μU/kg/min continuous IV infusion for 60 minutes, read-out: Css (Mean), concentration at steady state) was 0.025 ng/mL and the level at 1 h ([1]; AA/AT genotype healthy volunteers (12 subjects), 200 μU/kg/min continuous IV infusion for 60 minutes, read-out: Css (Median)) was 0.0251 ng/mL. For the same compound, the level at 1 h ([1]; AA/AT rs4869317 genotype (n = 12), 60 minute continuous IV infusion 200 μU/kg/min, read-out: Steady State Concentration at 60 minutes (Css)) was 0.025 ng/mL, the level at 1 h ([1]; TT genotype healthy volunteers (12 subjects), 200 μU/kg/min continuous IV infusion for 60 minutes, read-out: Css (Mean), concentration at steady state) was 0.0319 ng/mL and the level at 1 h ([1]; TT genotype healthy volunteers (12 subjects), 200 μU/kg/min continuous IV infusion for 60 minutes, read-out: Css (Median)) was 0.0271 ng/mL. The level at 1 h ([1]; TT rs4869317 genotype (n = 12), 60 minute continuous IV infusion 200 μU/kg/min, read-out: Steady State Concentration at 60 minutes (Css)) was 0.0319 ng/mL, the clearance ([1]; AA/AT genotype healthy volunteers (12 subjects), 200 μU/kg/min continuous IV infusion for 60 minutes, read-out: CL (Max)) was 37.3 mL/min/kg and the clearance ([1]; AA/AT genotype healthy volunteers (12 subjects), 200 μU/kg/min continuous IV infusion for 60 minutes, read-out: CL (Mean)) was 17.4 mL/min/kg. It also gave a clearance ([1]; AA/AT genotype healthy volunteers (12 subjects), 200 μU/kg/min continuous IV infusion for 60 minutes, read-out: CL (Median)) of 15 mL/min/kg, a clearance ([1]; AA/AT genotype healthy volunteers (12 subjects), 200 μU/kg/min continuous IV infusion for 60 minutes, read-out: CL (Min)) of 9.1 mL/min/kg and a clearance ([1]; AA/AT rs4869317 genotype (n = 12), 60 minute continuous IV infusion 200 μU/kg/min, read-out: Total Plasma Clearance (CL) Value) of 17.4 mL/min/kg. It also gave a clearance ([1]; TT genotype healthy volunteers (12 subjects), 200 μU/kg/min continuous IV infusion for 60 minutes, read-out: CL (Max)) of 22 mL/min/kg, a clearance ([1]; TT genotype healthy volunteers (12 subjects), 200 μU/kg/min continuous IV infusion for 60 minutes, read-out: CL (Mean)) of 13.8 mL/min/kg and a clearance ([1]; TT genotype healthy volunteers (12 subjects), 200 μU/kg/min continuous IV infusion for 60 minutes, read-out: CL (Median)) of 14 mL/min/kg. The clearance ([1]; TT genotype healthy volunteers (12 subjects), 200 μU/kg/min continuous IV infusion for 60 minutes, read-out: CL (Min)) was 4.4 mL/min/kg, the clearance ([1]; TT rs4869317 genotype (n = 12), 60 minute continuous IV infusion 200 μU/kg/min, read-out: Total Plasma Clearance (CL) Value) was 13.8 mL/min/kg and the “% change in the pharmacokinetic parameters in AA/AT genotype patients vs. TT genotype patients” value [2] was <33%. The “% increase in clearance in AA/AT genotype patients vs. TT genotype patients” value [2] was ≥46%, the clearance ([2]; read-out: Clearance in AA/AT genotype patients) was 28.7 mL/min/kg and the clearance ([2]; read-out: Clearance in TT genotype patients) was 19.7 mL/min/kg. The level at time molar ([2]; read-out: Concentration at steady state in AA/AT genotype patients) was 3.17 pM, the level at time molar ([2]; read-out: Concentration at steady state in TT genotype patients) was 4.7 pM and the “dose excreted unchanged in urine” value ([3]; VASOSTRICT prescribing information 2019) was “about 6%”. The apparent half-life ([3]; VASOSTRICT prescribing information, at these levels) was < 10 min, the “Clearance in healthy volunteers” value ([3]; vasopressin dose of 200 μU/kg/minute) was 15 mL/min/kg and the “vasopressin clearance, TT vs AA or AT genotyped patients (in words)” value [4] was “increase in vasopressin clearance”. For the same compound, the “rates of serious adverse events in AA genotype patients (in words)” value ([5]; septic shock patients who received vasopressin, Anantasit et al.) was “significantly higher rates of serious adverse events” and the “AVP blood levels, TT/TA vs AA genotype (in words)” value ([5]; septic shock patients, Anantasit et al. FIG. 2) was “statistically significant higher AVP blood levels”.
